# Measured values as given in patent US20240139197A1, “INHIBITION OF KDM5A FOR PROMOTING ANTIGEN PRESENTATION, INCREASING CD8+ T CELL INFILTRATION AND BOOSTING ANTI-TUMOR IMMUNE RESPONSE” (The Wistar Institute of Anatomy and Biology, priority 2022, published 2024).
# Tested on: HGSOC cell lines
# Test: dose response by colony formation assay in HGSOC/EOC cell lines
# Assay type: cell-based, human
# Conditions: panel of EOC cell lines, regardless of KDM5A expression status, dose response curve
# From the text: FIG. 5A-FIG. 5G show KDM5A is overexpressed in HGSOC and its expression negatively correlates with infiltration of CD8+ T cells. (FIG. 5A) Correlation between KDM5A and CD8A expression in the TCGA HGSOC dataset. (FIG. 5B) Correlation between KDM5A and CD8A expression in a published laser capture and microdissected (LCM) HGSOC dataset. (FIG. 5C) Correlation between KDM5A and PRFI expression in the TCGA HGSOC dataset. (FIG. 5D) Representative images of KDM5A IHC staining of HGSOC in a tumor microarray. (FIG. 5E) Relative expression of KDM5A in LCM of HGSOC and normal human ovarian surface epithelial cells (HOSE) or fallopian tube epithelial cells (FTE). (FIG. 5F) Expression of KDM5A and a loading control β-actin in the indicated FTE cells and HGSOC cell lines determined by immunoblot. (FIG. 5G) Dose response curves to KDM5A inhibitor CPI-455 determined by colony formation assay in the indicated HGSOC cell lines. Data represent mean±SEM; P values were calculated by using a two-tailed Student t test except in FIG. 5A and FIG. 5B by using Pearson r analysis.
# Insulin/Transferrin/Selenium (Invitrogen, Cat #51300), […] Hydrocortisone (Sigma, Cat #H0135), 10 ng/ml Murine epidermal growth factor (Sigma, Cat #E4127) and 1% penicillin/streptomycin at 37° C.with 5% CO2. […]
substance,measurement,value
CPI-455,cell viability in vitro,did not affect cell viability
